Experimental data from ChEMBL document CHEMBL3045723, “Synthesis of novel 3-(5-sulfanyl-1,3,4-oxadiazol-2-yl)-2H-chromen-2-one condensed s-triazinyl piperazines and piperidines as antimicrobial agents” (2012).
In brackets after ≈: the same amount, converted by molar mass.

Key:
Candida albicans [1] = assay: Antifungal activity against Candida albicans MTCC 183 after 48 hr; format: functional; settings: MTCC 183, 48 h
Aspergillus niger [2] = assay: Antifungal activity against Aspergillus niger MTCC 282 after 48 hr; format: functional; settings: MTCC 282, 48 h
Candida albicans [3] = assay: Antifungal activity against Candida albicans MTCC 183 after 24 hr by agar disk diffusion test; format: functional
Aspergillus niger [4] = assay: Antifungal activity against Aspergillus niger MTCC 282 after 24 hr by agar disk diffusion test; format: functional
Shigella flexneri [5] = assay: Antibacterial activity against Shigella flexneri after 24 hr; format: functional
Proteus vulgaris [6] = assay: Antibacterial activity against Proteus vulgaris MTCC 1771 after 24 hr; format: functional; settings: MTCC 1771, 24 h
Salmonella typhi [7] = assay: Antibacterial activity against Salmonella enterica subsp. enterica serovar Typhi MTCC 733 after 24 hr; format: functional; settings: MTCC 733, 24 h
Shigella flexneri [8] = assay: Antibacterial activity against Shigella flexneri after 24 hr by agar disk diffusion test; format: functional
Proteus vulgaris [9] = assay: Antibacterial activity against Proteus vulgaris MTCC 1771 after 24 hr by agar disk diffusion test; format: functional
Salmonella typhi [10] = assay: Antibacterial activity against Salmonella enterica subsp. enterica serovar Typhi MTCC 733 after 24 hr by agar disk diffusion test; format: functional
Klebsiella pneumoniae [11] = assay: Antibacterial activity against Klebsiella pneumoniae MTCC 109 after 24 hr by agar disk diffusion test; format: functional
Pseudomonas aeruginosa [12] = assay: Antibacterial activity against Pseudomonas aeruginosa MTCC 741 after 24 hr by agar disk diffusion test; format: functional
Escherichia coli [13] = assay: Antibacterial activity against Escherichia coli MTCC 739 after 24 hr by agar disk diffusion test; format: functional
Bacillus cereus [14] = assay: Antibacterial activity against Bacillus cereus MTCC 619 after 24 hr by agar disk diffusion test; format: functional
Staphylococcus aureus [15] = assay: Antibacterial activity against Staphylococcus aureus MTCC 96 after 24 hr by agar disk diffusion test; format: functional
Klebsiella pneumoniae [16] = assay: Antibacterial activity against Klebsiella pneumoniae MTCC 109 after 24 hr; format: functional; settings: MTCC 109, 24 h
Pseudomonas aeruginosa [17] = assay: Antibacterial activity against Pseudomonas aeruginosa MTCC 741; format: functional
Escherichia coli [18] = assay: Antibacterial activity against Escherichia coli MTCC 739 after 24 hr; format: functional; settings: MTCC 739, 24 h
Bacillus cereus [19] = assay: Antibacterial activity against Bacillus cereus MTCC 619 after 24 hr; format: functional; settings: MTCC 619, 24 h
Staphylococcus aureus [20] = assay: Antibacterial activity against Staphylococcus aureus MTCC 96 after 24 hr; format: functional; settings: MTCC 96, 24 h
Candida albicans [21] = assay: Antifungal activity against Candida albicans MTCC 183 at 100 ug/disk after 24 hr by agar disk diffusion test; format: functional; settings: MTCC 183, 24 h, read-out: IZ
Aspergillus niger [22] = assay: Antifungal activity against Aspergillus niger MTCC 282 at 100 ug/disk after 24 hr by agar disk diffusion test; format: functional; settings: MTCC 282, 24 h, read-out: IZ
Bacillus cereus [23] = assay: Antibacterial activity against Bacillus cereus MTCC 619 at 100 ug/disk after 24 hr by agar disk diffusion test; format: functional; settings: MTCC 619, 24 h, read-out: IZ
Staphylococcus aureus [24] = assay: Antibacterial activity against Staphylococcus aureus MTCC 96 at 100 ug/disc after 24 hr by agar disk diffusion test; settings: MTCC 96, 24 h, read-out: IZ
Shigella flexneri [25] = assay: Antibacterial activity against Shigella flexneri at 100 ug/disc after 24 hr by agar disk diffusion test; format: functional; settings: read-out: IZ
Proteus vulgaris [26] = assay: Antibacterial activity against Proteus vulgaris MTCC 1771 at 100 ug/disk after 24 hr by agar disk diffusion test; format: functional; settings: MTCC 1771, 24 h, read-out: IZ
Salmonella typhi [27] = assay: Antibacterial activity against Salmonella enterica subsp. enterica serovar Typhi MTCC 733 at 100 ug/disk after 24 hr by agar disk diffusion test; format: functional; settings: MTCC 733, 24 h, read-out: IZ
Pseudomonas aeruginosa [28] = assay: microbe, parasite or virus in culture; settings: MTCC 741, 24 h, read-out: IZ
Description: Antibacterial activity against Pseudomonas aeruginosa MTCC 741 at 100 ug/disk after 24 hr by agar disk diffusion test

Escherichia coli [29] = assay: microbe, parasite or virus in culture; settings: MTCC 739, 24 h, read-out: IZ
Description: Antibacterial activity against Escherichia coli MTCC 739 at 100 ug/disk after 24 hr by agar disk diffusion test

Klebsiella pneumoniae [30] = assay: microbe, parasite or virus in culture; settings: MTCC 109, 24 h, read-out: IZ
Description: Antibacterial activity against Klebsiella pneumoniae MTCC 109 at 100 ug/disk after 24 hr by agar disk diffusion test

Structure (SMILES) | MIC (Candida albicans [1]) [µg/mL] | MIC (Aspergillus niger [2]) [µg/mL] | inhibition zone (IZ) (Candida albicans [3]) [mm] | inhibition zone (IZ) (Aspergillus niger [4]) [mm] | MIC (Shigella flexneri [5]) [µg/mL] | MIC (Proteus vulgaris [6]) [µg/mL] | MIC (Salmonella typhi [7]) [µg/mL] | inhibition zone (IZ) (Shigella flexneri [8]) [mm] | inhibition zone (IZ) (Proteus vulgaris [9]) [mm] | inhibition zone (IZ) (Salmonella typhi [10]) [mm] | inhibition zone (IZ) (Klebsiella pneumoniae [11]) [mm] | inhibition zone (IZ) (Pseudomonas aeruginosa [12]) [mm] | inhibition zone (IZ) (Escherichia coli [13]) [mm] | inhibition zone (IZ) (Bacillus cereus [14]) [mm] | inhibition zone (IZ) (Staphylococcus aureus [15]) [mm] | MIC (Klebsiella pneumoniae [16]) [µg/mL] | MIC (Pseudomonas aeruginosa [17]) [µg/mL] | MIC (Escherichia coli [18]) [µg/mL] | MIC (Bacillus cereus [19]) [µg/mL] | MIC (Staphylococcus aureus [20]) [µg/mL] | other results
COc1ccc(N2CCN(c3nc(Oc4cccc5cccnc45)nc(Sc4nnc(-c5cc6ccccc6oc5=O)o4)n3)CC2)cc1 | 50 (≈ 75.9 µM) | 25 (≈ 38 µM) | 22 | 24 | 50 (≈ 75.9 µM) | 100 (≈ 152 µM) | 12.5 (≈ 19 µM) | 22 | 18 | 24 | 19 | 23 | 17 | 23 | 22 | 100 (≈ 152 µM) | 12.5 (≈ 19 µM) | 100 (≈ 152 µM) | 12.5 (≈ 19 µM) | 25 (≈ 38 µM) | 
O=c1oc2ccccc2cc1-c1nnc(Sc2nc(Oc3cccc4cccnc34)nc(N3CCC(Cc4ccccc4)CC3)n2)o1 | 100 (≈ 156 µM) | 100 (≈ 156 µM) | 13 | <10 | 100 (≈ 156 µM) | 100 (≈ 156 µM) | 100 (≈ 156 µM) | 11 | <10 | 14 | <10 | <10 | 12 | 13 | 16 | 100 (≈ 156 µM) | 100 (≈ 156 µM) | 100 (≈ 156 µM) | 100 (≈ 156 µM) | 100 (≈ 156 µM) | 
O=c1oc2ccccc2cc1-c1nnc(Sc2nc(Oc3cccc4cccnc34)nc(N3CCCCC3)n2)o1 | 100 (≈ 181 µM) | 100 (≈ 181 µM) | <10 | <10 | 100 (≈ 181 µM) | 100 (≈ 181 µM) | 100 (≈ 181 µM) | <10 | <10 | 14 | 20 | 15 | <10 | <10 | 11 | 50 (≈ 90.6 µM) | 100 (≈ 181 µM) | 100 (≈ 181 µM) | 100 (≈ 181 µM) | 100 (≈ 181 µM) | 
O=c1oc2ccccc2cc1-c1nnc(Sc2nc(Oc3cccc4cccnc34)nc(N3CCN(c4cccc(C(F)(F)F)c4)CC3)n2)o1 | 50 (≈ 71.8 µM) | 25 (≈ 35.9 µM) | 21 | 24 | 100 (≈ 144 µM) | 25 (≈ 35.9 µM) | 50 (≈ 71.8 µM) | 21 | 23 | 21 | 21 | 21 | 22 | 24 | 24 | 25 (≈ 35.9 µM) | 25 (≈ 35.9 µM) | 50 (≈ 71.8 µM) | 12.5 (≈ 17.9 µM) | 12.5 (≈ 17.9 µM) | 
CC(C)N1CCN(c2nc(Oc3cccc4cccnc34)nc(Sc3nnc(-c4cc5ccccc5oc4=O)o3)n2)CC1 | 100 (≈ 168 µM) | 100 (≈ 168 µM) | 11 | 12 | 25 (≈ 42 µM) | 100 (≈ 168 µM) | 50 (≈ 84.1 µM) | 24 | 15 | 20 | 14 | 21 | 16 | 16 | 19 | 100 (≈ 168 µM) | 25 (≈ 42 µM) | 100 (≈ 168 µM) | 100 (≈ 168 µM) | 100 (≈ 168 µM) | 
O=c1oc2ccccc2cc1-c1nnc(Sc2nc(Oc3cccc4cccnc34)nc(N3CCN(c4ccc(F)cc4)CC3)n2)o1 | 50 (≈ 77.3 µM) | 100 (≈ 155 µM) | 22 | 21 | 100 (≈ 155 µM) | 50 (≈ 77.3 µM) | 100 (≈ 155 µM) | 17 | 21 | 19 | 16 | 21 | 23 | 21 | 22 | 100 (≈ 155 µM) | 50 (≈ 77.3 µM) | 25 (≈ 38.7 µM) | 50 (≈ 77.3 µM) | 25 (≈ 38.7 µM) | 
O=c1oc2ccccc2cc1-c1nnc(Sc2nc(Oc3cccc4cccnc34)nc(N3CCN(c4ccccc4F)CC3)n2)o1 | 100 (≈ 155 µM) | 100 (≈ 155 µM) | 19 | 21 | 100 (≈ 155 µM) | 25 (≈ 38.7 µM) | 50 (≈ 77.3 µM) | 19 | 22 | 20 | 20 | 19 | 23 | 20 | 19 | 50 (≈ 77.3 µM) | 100 (≈ 155 µM) | 25 (≈ 38.7 µM) | 50 (≈ 77.3 µM) | 100 (≈ 155 µM) | 
O=c1oc2ccccc2cc1-c1nnc(Sc2nc(Oc3cccc4cccnc34)nc(N3CCN(Cc4ccccc4)CC3)n2)o1 | 100 (≈ 156 µM) | 100 (≈ 156 µM) | <10 | <10 | 100 (≈ 156 µM) | 100 (≈ 156 µM) | 100 (≈ 156 µM) | 13 | <10 | <10 | <10 | 19 | 16 | 17 | 13 | 100 (≈ 156 µM) | 100 (≈ 156 µM) | 100 (≈ 156 µM) | 100 (≈ 156 µM) | 100 (≈ 156 µM) | 
CC(=O)N1CCN(c2ccc(OCC3COC(Cn4ccnc4)(c4ccc(Cl)cc4Cl)O3)cc2)CC1 (centres undefined) [KETOCONAZOLE] | 1.56 (≈ 2.94 µM) | 1.56 (≈ 2.94 µM) |  |  |  |  |  |  |  |  |  |  |  |  |  |  |  |  |  |  | zone of inhibition at 100 µg/disc (Candida albicans [21]): 33 mm; zone of inhibition at 100 µg/disc (Aspergillus niger [22]): 30 mm
COc1ccc(CN2CCN(c3nc(Oc4cccc5cccnc45)nc(Sc4nnc(-c5cc6ccccc6oc5=O)o4)n3)CC2)c(OC)c1OC | 50 (≈ 68.2 µM) | 25 (≈ 34.1 µM) | 22 | 24 | 25 (≈ 34.1 µM) | 100 (≈ 136 µM) | 12.5 (≈ 17.1 µM) | 23 | 20 | 24 | 18 | 22 | 19 | 23 | 23 | 100 (≈ 136 µM) | 12.5 (≈ 17.1 µM) | 100 (≈ 136 µM) | 12.5 (≈ 17.1 µM) | 12.5 (≈ 17.1 µM) | 
O=C(O)c1cn(C2CC2)c2cc(N3CCNCC3)c(F)cc2c1=O [CIPROFLOXACIN] |  |  |  |  | 1.56 (≈ 4.71 µM) | 0.39 (≈ 1.18 µM) | 0.39 (≈ 1.18 µM) |  |  |  |  |  |  |  |  | 0.78 (≈ 2.35 µM) | 0.78 (≈ 2.35 µM) |  | 0.39 (≈ 1.18 µM) | 1.56 (≈ 4.71 µM) | zone of inhibition at 100 µg/disc (Bacillus cereus [23]): 31 mm; zone of inhibition at 100 µg/disc (Staphylococcus aureus [24]): 30 mm; zone of inhibition at 100 µg/disc (Shigella flexneri [25]): 32 mm; zone of inhibition at 100 µg/disc (Proteus vulgaris [26]): 31 mm; zone of inhibition at 100 µg/disc (Salmonella typhi [27]): 30 mm; zone of inhibition at 100 µg/disc (Pseudomonas aeruginosa [28]): 33 mm; zone of inhibition at 100 µg/disc (Escherichia coli [29]): 32 mm; zone of inhibition at 100 µg/disc (Klebsiella pneumoniae [30]): 33 mm
